Source: PubChem BioAssay (NCI)
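All cell lines were grown in 96-well plates and treated with compound for 48 hours. GI50 is the concentration that inhibits growth by half. TGI is the concentration that stops growth completely.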

What was measured:
Test in all cases: NCI-60 cell line screen, 48 h
CCRF-CEM leukemia = system: CCRF-CEM leukemia
HT29 colon = system: HT29 colon
NCI-H226 lung = system: NCI-H226 lung
NCI/ADR-RES ovarian = system: NCI/ADR-RES ovarian
OVCAR-5 ovarian = system: OVCAR-5 ovarian
OVCAR-8 ovarian = system: OVCAR-8 ovarian
SN12C renal = system: SN12C renal
SNB-19 CNS = system: SNB-19 CNS
T-47D breast = system: T-47D breast
UO-31 renal = system: UO-31 renal
A498 renal = system: A498 renal
UACC-257 melanoma = system: UACC-257 melanoma

Structure (SMILES): O=C1O/C(=C\C=C\CO)C=C1/C=C/CO
- TGI (CCRF-CEM leukemia): 60.3 µM
- TGI (HT29 colon): 88.5 µM
- TGI (NCI-H226 lung): 95.8 µM
- TGI (NCI/ADR-RES ovarian): 89.1 µM
- TGI (OVCAR-5 ovarian): 41.7 µM
- TGI (OVCAR-8 ovarian): 38.6 µM
- TGI (SN12C renal): 80.4 µM
- TGI (SNB-19 CNS): 51.4 µM
- TGI (T-47D breast): 51.7 µM
- TGI (UO-31 renal): 30.8 µM

Structure (SMILES): CCCCCCCCc1ccc(CCC(N)(CO)CO)cc1
- GI50 (A498 renal): 3.34 µM
- TGI (A498 renal): 22.6 µM
- GI50 (HT29 colon): 1.76 µM
- TGI (HT29 colon): 3.31 µM
- GI50 (NCI-H226 lung): 1.77 µM
- TGI (NCI-H226 lung): 3.42 µM
- GI50 (OVCAR-5 ovarian): 1.64 µM
- TGI (OVCAR-5 ovarian): 3.08 µM
- GI50 (SN12C renal): 3.5 µM
- TGI (SN12C renal): 13.9 µM
- GI50 (T-47D breast): 1.78 µM
- TGI (T-47D breast): 3.44 µM
- GI50 (UACC-257 melanoma): 2.23 µM
- TGI (UACC-257 melanoma): 5.01 µM
- GI50 (UO-31 renal): 1.7 µM
- TGI (UO-31 renal): 3.4 µM

Structure (SMILES): N=C(N)SCCN1CCCCC1
- TGI (A498 renal): > 100 µM
- TGI (HT29 colon): > 100 µM
- TGI (NCI-H226 lung): 47.7 µM
- TGI (NCI/ADR-RES ovarian): > 100 µM
- TGI (OVCAR-5 ovarian): > 100 µM
- TGI (OVCAR-8 ovarian): > 100 µM
- TGI (SN12C renal): 73.4 µM
- TGI (T-47D breast): 85.6 µM
- TGI (UACC-257 melanoma): 41.6 µM
- TGI (UO-31 renal): > 100 µM

Structure (SMILES): NC(=S)N/N=C1\CC(c2ccccc2)Nc2ccccc21 (stereo not drawn)
- TGI (A498 renal): 68.2 µM
- TGI (CCRF-CEM leukemia): > 100 µM
- TGI (HT29 colon): 48.5 µM
- TGI (NCI-H226 lung): > 100 µM
- TGI (OVCAR-8 ovarian): > 100 µM
- TGI (SN12C renal): > 100 µM
- TGI (SNB-19 CNS): > 100 µM
- TGI (UO-31 renal): 80.7 µM

Structure (SMILES): C[N+]1(c2ccccc2)C=C(c2ccccc2)SC1=S (stereo not drawn)
- TGI (A498 renal): 46.7 µM
- TGI (HT29 colon): > 100 µM
- TGI (NCI-H226 lung): > 100 µM
- TGI (NCI/ADR-RES ovarian): > 100 µM
- TGI (OVCAR-5 ovarian): > 100 µM
- TGI (OVCAR-8 ovarian): > 100 µM
- TGI (SN12C renal): > 100 µM
- TGI (SNB-19 CNS): > 100 µM
- TGI (T-47D breast): 8.63 µM
- TGI (UACC-257 melanoma): > 100 µM
- TGI (UO-31 renal): > 100 µM

Structure (SMILES): CC1(Cc2cc3c(cc2C2(c4ccc([N+](=O)[O-])cc4)OCCO2)OCO3)OCCO1
- TGI (A498 renal): > 100 µM
- TGI (CCRF-CEM leukemia): > 100 µM
- TGI (HT29 colon): > 100 µM
- TGI (NCI-H226 lung): > 100 µM
- TGI (NCI/ADR-RES ovarian): > 100 µM
- TGI (OVCAR-5 ovarian): > 100 µM
- TGI (OVCAR-8 ovarian): > 100 µM
- TGI (SN12C renal): > 100 µM
- TGI (SNB-19 CNS): > 100 µM
- TGI (T-47D breast): > 100 µM
- TGI (UACC-257 melanoma): > 100 µM
- TGI (UO-31 renal): > 100 µM

Structure (SMILES): Cc1ncc(COP(=O)(O)O)c(C)c1O
- TGI (A498 renal): > 100 µM
- TGI (HT29 colon): > 100 µM
- TGI (NCI-H226 lung): > 100 µM
- TGI (NCI/ADR-RES ovarian): > 100 µM
- TGI (OVCAR-5 ovarian): > 100 µM
- TGI (OVCAR-8 ovarian): > 100 µM
- TGI (SN12C renal): > 100 µM
- TGI (SNB-19 CNS): > 100 µM
- TGI (T-47D breast): > 100 µM
- TGI (UACC-257 melanoma): > 100 µM
- TGI (UO-31 renal): > 100 µM

Structure (SMILES): CCOc1ccc(N=Nc2ccc(-c3ccc(N=Nc4c(O)ccc5cc(S(=O)(=O)O)cc(S(=O)(=O)O)c45)cc3)cc2)cc1
- TGI (CCRF-CEM leukemia): > 100 µM
- TGI (HT29 colon): > 100 µM
- TGI (NCI-H226 lung): > 100 µM
- TGI (NCI/ADR-RES ovarian): > 100 µM
- TGI (OVCAR-5 ovarian): > 100 µM
- TGI (OVCAR-8 ovarian): > 100 µM
- TGI (SNB-19 CNS): > 100 µM
- TGI (UACC-257 melanoma): > 100 µM
- TGI (UO-31 renal): > 100 µM

Structure (SMILES): Cc1ccccc1C1CC(=O)CC(c2ccccc2C)C12C(=O)NC(=S)NC2=O (stereo not drawn)
- TGI (A498 renal): 72.2 µM
- TGI (CCRF-CEM leukemia): 70.4 µM
- TGI (HT29 colon): 54.3 µM
- TGI (NCI-H226 lung): 44.2 µM
- TGI (NCI/ADR-RES ovarian): > 100 µM
- TGI (OVCAR-5 ovarian): > 100 µM
- TGI (SN12C renal): 67 µM
- TGI (SNB-19 CNS): > 100 µM
- TGI (T-47D breast): > 100 µM
- TGI (UACC-257 melanoma): 52.4 µM
- TGI (UO-31 renal): 43.2 µM

Structure (SMILES): CC(=O)[C@]12OC(=O)C3=C1[C@H](CC[C@@H]3C)[C@@H](C)C[C@H]2C=C(C)C
- TGI (A498 renal): 15.1 µM
- TGI (CCRF-CEM leukemia): 22.6 µM
- TGI (HT29 colon): 13.9 µM
- TGI (NCI-H226 lung): 16 µM
- TGI (NCI/ADR-RES ovarian): 17.7 µM
- TGI (OVCAR-5 ovarian): 15.2 µM
- TGI (OVCAR-8 ovarian): 17 µM
- TGI (SN12C renal): 15.8 µM
- TGI (SNB-19 CNS): 16.4 µM
- TGI (T-47D breast): 14.4 µM
- TGI (UACC-257 melanoma): 21 µM
- TGI (UO-31 renal): 15.2 µM

Structure (SMILES): Cc1cccc(/C=C2/C(=O)Nc3ccccc32)n1
- TGI (A498 renal): 46.9 µM
- TGI (CCRF-CEM leukemia): > 85.9 µM
- TGI (HT29 colon): > 100 µM
- GI50 (NCI-H226 lung): 14.6 µM
- TGI (NCI-H226 lung): 35.9 µM
- TGI (NCI/ADR-RES ovarian): 53.2 µM
- TGI (OVCAR-5 ovarian): 27 µM
- TGI (OVCAR-8 ovarian): > 80.3 µM
- TGI (SN12C renal): 37.9 µM
- TGI (SNB-19 CNS): > 58.9 µM
- TGI (T-47D breast): 34.2 µM
- TGI (UACC-257 melanoma): 30.1 µM
- TGI (UO-31 renal): 30.1 µM

Structure (SMILES): O=C(/C=C/c1ccc(O)cc1)c1cc(-c2cc(CCC(=O)c3ccc(O)cc3O)ccc2O)c(O)cc1O
- TGI (A498 renal): > 50 µM
- TGI (CCRF-CEM leukemia): 43.6 µM
- TGI (HT29 colon): 35.8 µM
- TGI (NCI/ADR-RES ovarian): > 50 µM
- TGI (OVCAR-5 ovarian): > 50 µM
- TGI (OVCAR-8 ovarian): > 50 µM
- TGI (SN12C renal): > 50 µM
- TGI (SNB-19 CNS): > 50 µM
- TGI (T-47D breast): > 50 µM
- TGI (UACC-257 melanoma): > 50 µM
- TGI (UO-31 renal): > 50 µM

Structure (SMILES): C=C(C[C@@H](O)[C@H](C)NC(=O)OCc1ccccc1)C(=O)OC(C)(C)C
- TGI (A498 renal): > 100 µM
- TGI (CCRF-CEM leukemia): 61.7 µM
- TGI (HT29 colon): > 100 µM
- TGI (NCI-H226 lung): > 100 µM
- TGI (NCI/ADR-RES ovarian): > 100 µM
- TGI (OVCAR-5 ovarian): > 100 µM
- TGI (OVCAR-8 ovarian): > 100 µM
- TGI (SN12C renal): > 100 µM
- TGI (SNB-19 CNS): > 100 µM
- TGI (T-47D breast): 67.3 µM
- TGI (UACC-257 melanoma): > 100 µM
- TGI (UO-31 renal): > 100 µM

Structure (SMILES): CC(=O)c1c(C)cc2cccc(OC3OC(CO)C(O)C(O)C3O)c2c1O (stereo not drawn) (tested in a mixture with another compound)
- TGI (A498 renal): > 100 µM
- TGI (CCRF-CEM leukemia): > 100 µM
- TGI (HT29 colon): > 100 µM
- TGI (NCI-H226 lung): > 100 µM
- TGI (NCI/ADR-RES ovarian): > 100 µM
- TGI (OVCAR-5 ovarian): > 100 µM
- TGI (OVCAR-8 ovarian): > 100 µM
- TGI (SN12C renal): > 100 µM
- TGI (SNB-19 CNS): > 100 µM
- TGI (T-47D breast): > 100 µM
- TGI (UACC-257 melanoma): > 100 µM

Structure (SMILES): CC(=O)Oc1cc(/C=C/c2ccc(O)cc2)cc(OC(C)=O)c1
- TGI (A498 renal): 85.5 µM
- TGI (HT29 colon): 93.1 µM
- TGI (NCI-H226 lung): 86.9 µM
- TGI (NCI/ADR-RES ovarian): 51.9 µM
- TGI (OVCAR-5 ovarian): > 100 µM
- TGI (OVCAR-8 ovarian): > 100 µM
- TGI (SN12C renal): 68.5 µM
- TGI (SNB-19 CNS): > 100 µM
- TGI (T-47D breast): > 100 µM
- TGI (UACC-257 melanoma): > 100 µM
- TGI (UO-31 renal): > 100 µM

Structure (SMILES): CC(=O)C(N=NC1CCC(S(=O)(=O)NB2N=CS2)CC1)C(=O)Nc1ccccc1C (stereo not drawn)
- TGI (A498 renal): 33.6 µM
- TGI (CCRF-CEM leukemia): > 100 µM
- TGI (HT29 colon): 29.9 µM
- TGI (NCI-H226 lung): 31.4 µM
- TGI (OVCAR-5 ovarian): 39.3 µM
- TGI (OVCAR-8 ovarian): 34.1 µM
- TGI (SN12C renal): 34.7 µM
- TGI (SNB-19 CNS): 31.2 µM
- TGI (UACC-257 melanoma): 45.1 µM
- TGI (UO-31 renal): 34 µM

Structure (SMILES): O=S(=O)([O-])[O-].[Fe+2].[OH2+]c1c(Cl)cc(Cl)cc1/C=N/Nc1ccccn1
- TGI (A498 renal): 4.5 µM
- TGI (HT29 colon): 3.6 µM
- TGI (NCI-H226 lung): 4.41 µM
- TGI (OVCAR-5 ovarian): 5.97 µM
- TGI (OVCAR-8 ovarian): 2.94 µM
- TGI (SN12C renal): 2.82 µM
- TGI (SNB-19 CNS): 3.64 µM
- TGI (UACC-257 melanoma): 2.63 µM
- TGI (UO-31 renal): 3.13 µM

Structure (SMILES): Nc1ccc(S(=O)(=O)NCCS(=O)(=O)O)cc1
- TGI (A498 renal): > 100 µM
- TGI (CCRF-CEM leukemia): > 100 µM
- TGI (HT29 colon): > 100 µM
- TGI (NCI-H226 lung): > 100 µM
- TGI (NCI/ADR-RES ovarian): > 100 µM
- TGI (OVCAR-5 ovarian): > 100 µM
- TGI (OVCAR-8 ovarian): > 100 µM
- TGI (SN12C renal): > 100 µM
- TGI (SNB-19 CNS): > 100 µM
- TGI (UACC-257 melanoma): > 100 µM
- TGI (UO-31 renal): > 100 µM
